Tests used:
[1] = Half-life period was determined; type: ADME
[2] = target: T1, 3',5'-cyclic-AMP phosphodiesterase 4A (Homo sapiens, UniProt P27815); experiment: Inhibitory concentration of compound against LPS- induced TNF-alpha production in whole human blood assay; type: functional, tissue-based
Target sequence in this assay (P27815 whole entry): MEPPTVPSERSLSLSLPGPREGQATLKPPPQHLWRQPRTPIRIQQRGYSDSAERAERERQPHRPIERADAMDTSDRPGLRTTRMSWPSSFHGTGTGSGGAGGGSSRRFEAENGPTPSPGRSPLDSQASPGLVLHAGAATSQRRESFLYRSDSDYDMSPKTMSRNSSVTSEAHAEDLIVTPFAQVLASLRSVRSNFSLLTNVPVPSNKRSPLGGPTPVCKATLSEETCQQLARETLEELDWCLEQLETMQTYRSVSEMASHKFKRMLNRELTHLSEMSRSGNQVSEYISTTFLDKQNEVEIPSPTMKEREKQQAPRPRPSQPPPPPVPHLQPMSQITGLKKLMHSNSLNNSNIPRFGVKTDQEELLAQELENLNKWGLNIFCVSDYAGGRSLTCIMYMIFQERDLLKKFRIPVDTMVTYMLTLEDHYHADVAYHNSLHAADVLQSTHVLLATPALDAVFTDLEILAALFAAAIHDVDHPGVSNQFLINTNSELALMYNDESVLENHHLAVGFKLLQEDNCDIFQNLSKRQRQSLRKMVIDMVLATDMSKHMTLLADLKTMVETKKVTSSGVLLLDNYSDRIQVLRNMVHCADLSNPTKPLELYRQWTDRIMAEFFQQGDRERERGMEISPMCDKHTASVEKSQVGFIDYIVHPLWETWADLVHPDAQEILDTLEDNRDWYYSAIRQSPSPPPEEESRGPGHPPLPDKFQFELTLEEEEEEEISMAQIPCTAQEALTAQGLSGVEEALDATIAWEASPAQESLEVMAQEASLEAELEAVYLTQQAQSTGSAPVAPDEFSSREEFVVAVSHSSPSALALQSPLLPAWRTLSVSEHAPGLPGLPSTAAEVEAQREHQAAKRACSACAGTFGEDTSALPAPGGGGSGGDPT

[3] = Bioavailability; type: ADME, organism-based; settings: eutheria, in vivo
[4] = target: T1, 3',5'-cyclic-AMP phosphodiesterase 4A; experiment: Inhibitory concentration against human PDE4A isoform using a construct representing the common region of spliced variants expressed as GST-fusion protein in Sf9 cells
Target sequence in this assay (P27815 whole entry, looked up, stated change not applied): as the sequence (P27815 whole entry) above

Cavia porcellus = experiment: Ovalbumin induced bronchoconstriction in conscious guinea pig pretreated with 1 mg/kg intraperitoneal dose for 4 hr; type: functional
[5] = Half life of compound was determined in rat; type: ADME, organism-based; settings: in vivo
Ovis aries [6] = experiment: Ascaris-induced late phase bronchoconstriction in conscious sheep administered intravenously at 2 mg/kg; type: functional; settings: route intravenous
Mustela putorius furo = species: Mustela putorius furo; experiment: Emetic effect in ferrets; type: functional
[7] = Half life of compound was determined in squirrel monkey; type: ADME; settings: in vivo
Ovis aries [8] = experiment: Ascaris-induced early phase bronchoconstriction in conscious sheep administered intravenously at 2 mg/kg; type: functional; settings: route intravenous
[9] = Ascaris-induced bronchoconstriction in anesthetized squirrel monkey pretreated with 3 mg/kg peroral dose for 4 hr; type: functional; settings: route oral
[10] = Ascaris-induced bronchoconstriction in anesthetized squirrel monkey pretreated with 5 mg/kg intravenously for 30 min; type: functional; settings: route intravenous

`[O-][n+]1ccc(CC(c2ccc(C3(O)CCC3)cc2)c2ccc(OC(F)F)c(OC(F)F)c2)cc1` (stereo not given) gave a half-life [1] of 2 h, an IC50 [2] of 0.38 µM and a bioavailability [3] of 100%. For the same molecule, the IC50 [4] was 0.0075 µM.

`Clc1ccc(C(Cc2ccncc2)c2ccc3c(c2)OCCO3)cc1` (stereo not given) showed an IC50 [4] of 0.772 µM.

Molecule `COc1ccc(C(Cc2ccncc2)c2ccc(Cl)cc2)c(F)c1OC1CCCC1` (stereo not given) has an IC50 [2] of 98 µM and an IC50 [4] of 0.11 µM.

For `CCNC(=O)OCc1ccc(C(Cc2cc[n+]([O-])cc2)c2ccc(OC(F)F)c(OC(F)F)c2)cc1` (stereo not given), the IC50 [2] was 0.41 µM and the IC50 [4] was 0.0046 µM.

With `[O-][n+]1ccc(CC(c2ccc(CO)cc2)c2ccc(OC(F)F)c(OC(F)F)c2)cc1` (stereo not given) the IC50 [2] was 0.47 µM and the IC50 [4] was 0.044 µM.

In the case of `FC(F)Oc1ccc(C(Cc2ccncc2)c2ccc(Cl)cc2)cc1OC(F)F` (stereo not given), the IC50 [2] is reported as 4.5 µM and the IC50 [4] is reported as 0.011 µM.

For `[O-][n+]1ccc(CC(c2ccc(C(O)(C(F)(F)F)C(F)(F)F)cc2)c2ccc(OC(F)F)c(OC(F)F)c2)cc1` (stereo not given), the Efficacy (Cavia porcellus) was 58%, the half-life [5] was greater than 24 h and the Efficacy (Ovis aries [6]) was 95%. It also gave an IC50 [2] of 0.67 µM, a Dose (Mustela putorius furo) greater than 3 mg/kg and a half-life [7] of 48 h. The Efficacy (Ovis aries [8]) was 85%, the Efficacy [9] was 96% and the IC50 [4] was 0.0042 µM.

`CC(O)c1ccc(C(Cc2cc[n+]([O-])cc2)c2ccc(OC(F)F)c(OC(F)F)c2)cc1` (stereo not given) gave an IC50 [2] of 0.51 µM and an IC50 [4] of 0.045 µM.

`Cc1ccccc1C(=O)NS(=O)(=O)c1ccc(C(Cc2cc[n+]([O-])cc2)c2ccc(OC(F)F)c(OC(F)F)c2)cc1` (stereo not given) gave an IC50 [2] of 75 µM and an IC50 [4] of 0.0031 µM.

Molecule `COc1ccc(C(Cc2ccncc2)c2ccc(Cl)cc2)cc1OC1CCCC1` (stereo not given) has an IC50 [2] of 12 µM and an IC50 [4] of 0.0028 µM.

`CC(C)(O)c1ccc(C(Cc2cc[n+]([O-])cc2)c2ccc(OC(F)F)c(OC(F)F)c2)cc1` (stereo not given) gave a half-life [1] of 1 h, an IC50 [2] of 0.36 µM and a bioavailability [3] of 55%. It also gave an IC50 [4] of 0.0096 µM.

With `O=C(O)c1ccc(C(Cc2cc[n+]([O-])cc2)c2ccc(OC(F)F)c(OC(F)F)c2)cc1` (stereo not given) the IC50 [2] was 77 µM and the IC50 [4] was 0.024 µM.

Molecule `Clc1ccc(C(Cc2ccncc2)c2ccc3c(c2)OCO3)cc1` (stereo not given) has an IC50 [4] greater than 1 µM.

In the case of `FC(F)Oc1ccc(C(Cc2ccncc2)c2ccc(Cl)cc2)cc1OC1CCCC1` (stereo not given), the IC50 [2] is reported as 8.7 µM and the IC50 [4] is reported as 0.013 µM.

With `CN(C)C(=O)c1ccc(C(Cc2cc[n+]([O-])cc2)c2ccc(OC(F)F)c(OC(F)F)c2)cc1` (stereo not given) the IC50 [2] was 1 µM and the IC50 [4] was 0.0086 µM.

`[O-][n+]1ccc(CC(c2ccc(C3(O)CC3)cc2)c2ccc(OC(F)F)c(OC(F)F)c2)cc1` (stereo not given) showed an IC50 [2] of 1.7 µM and an IC50 [4] of 0.016 µM.

Work on `CC(C)(C(=O)O)c1cccc(-c2ccc(C(Cc3cc[n+]([O-])cc3)c3ccc(OC(F)F)c(OC(F)F)c3)cc2)c1` (stereo not given) yielded an IC50 [2] of 6.5 µM and an IC50 [4] of 0.0022 µM.

`Cc1ccc(C(=O)c2ccc(C(Cc3cc[n+]([O-])cc3)c3ccc(OC(F)F)c(OC(F)F)c3)cc2)nc1` (stereo not given) gave an IC50 [2] of 0.89 µM and an IC50 [4] of 0.0073 µM.

Work on `[O-][n+]1ccc(CC(c2ccc(COc3ccc(F)cc3)cc2)c2ccc(OC(F)F)c(OC(F)F)c2)cc1` (stereo not given) yielded an IC50 [2] of 1.9 µM and an IC50 [4] of 0.0005 µM.

`O=C(O)Cc1ccc(C(Cc2cc[n+]([O-])cc2)c2ccc(OC(F)F)c(OC(F)F)c2)cc1` (stereo not given) gave an IC50 [2] of 58 µM and an IC50 [4] of 0.053 µM.

In the case of `COc1ccc([C@H](Cc2ccncc2)c2ccccc2)cc1OC1CCCC1` [CDP840], the half-life [5] is reported as less than 0.5 h, the IC50 [2] is reported as 16 µM and the Dose (Mustela putorius furo) is reported as 30 mg/kg. It also gave an Efficacy [10] of 64%, a half-life [7] of less than 1 h and an IC50 [4] of 0.0043 µM.

Reference: ChEMBL document CHEMBL1135123, “Discovery of L-791,943: a potent, selective, non emetic and orally active phosphodiesterase-4 inhibitor” (Bioorg Med Chem Lett, 2002)
